# Source: paper PMC5673977, “Transport Deficiency Is the Molecular Basis of Candida albicans Resistance to Antifungal Oligopeptides” (Frontiers in Microbiology, 2017)
# Like-named read-outs stand apart in the source and are kept apart here. Where a SMILES comes first, the peptide text is derived from it.
# Tests used:
# Format in all cases: cell-based, Candida albicans
# C. albicans SC5314 [1] = conditions: SC 5314
# Experimental: (§1) Strains were grown at 30°C in YPD medium (1% yeast extract, 2% peptone, and 2% glucose) and stored on YPD plates containing 2% agar. Susceptibility testing was performed in YPD and other three media: (a) RPMI-1640 w/o sodium bicarbonate, with L-glutamine + 2% glucose + 3.45% MOPS, pH adjusted to 7.0; (b) YNB-AS—Yeast Nitrogen Base w/o amino acids (contains ammonium sulfate 5 g L^-1) + 2% glucose; (c) YNB-SG—Yeast Nitrogen Base w/o amino acids and ammonium sulfate + 2% glucose + 0.2 g L^-1 sodium glutamate. In their solid version, used for the mutant generation and isolation, YNB-AS and YNB-SG contained 2% agar.
# (§2) The in vitro growth inhibitory activity of antifungals was quantified by determination of minimal inhibitory concentration (MIC) values by the serial twofold dilution method, using the 96-well microtiter plates in three media: buffered RPMI-1640, YNB-AS, and YNB-SG. Conditions of the RPMI-1640-based assay were the same as outlined in the CLSI recommendations ([Clinical Laboratory Standards Institute, 2008]), except for the end-point readout that was done by spectrophotometric determination of cell density at 531 nm. Turbidity in individual wells was measured with a microplate reader (Victor^3; Perkin Elmer). MIC was defined as the lowest drug concentration that gave at least an 80% decrease in turbidity, relative to that of the drug-free growth control.
# (§3) The 96-well microtiter plates were also used for determination of in vitro growth inhibitory activity in YPD and YNB-based media. Individual wells were inoculated with 5 × 10^3 cfu mL^-1 of C. albicans cells from the overnight culture in YPD medium. The inoculated plates were incubated 37°C for 24 h and then turbidity was measured with a microplate reader at 531 nm, as described above for the RPMI-1640-based assay.
# C. albicans opt1Δ [2] = conditions: turbidity 531 nm, at least 80% decrease
# Experimental: as §1, §2, §3
# [3] = tested on: C. albicans opt1–opt5Δ ptr2Δ ptr22Δ; conditions: turbidity 531 nm, at least 80% decrease
# Experimental: as §1, §2, §3
# C. albicans opt1–opt5Δ [4] = conditions: turbidity 531 nm, at least 80% decrease
# Experimental: as §1, §2, §3
# C. albicans opt2Δ opt3Δ [5] = conditions: turbidity 531 nm, at least 80% decrease
# Experimental: as §1, §2, §3
# C. albicans opt4Δ [6] = conditions: turbidity 531 nm, at least 80% decrease
# Experimental: as §1, §2, §3
# C. albicans opt5Δ [7] = conditions: turbidity 531 nm, at least 80% decrease
# Experimental: as §1, §2, §3
# C. albicans ptr2Δ ptr22Δ [8] = conditions: turbidity 531 nm, at least 80% decrease
# Experimental: as §1, §2, §3
# C. albicans SC5314 [9] = assay: Initial peptide uptake rate; conditions: SC 5314; cells grown in YNB-SG; 50 mM potassium phosphate buffer (pH 5.0 or 6.5) + 1% glucose, 30°C, 100 μM peptide, residual peptide by TNBS A420, slope 0- to 10-min
# Experimental: (§4) Yeast cells grown exponentially in the YNB-SG medium were harvested by centrifugation (3000 ×g, 5 min), washed with 50 mM potassium phosphate buffer (pH 5.0 or 6.5), and suspended in the same buffer containing 1% glucose, to a final cell density corresponding to A660 ≅ 1.0. The cell suspension was incubated at 30°C. After 10 min, an oligopeptide solution was added, to give a final concentration of 100 μM. At that moment and at 5 min intervals thereafter, 2 mL samples of the cell suspension were withdrawn, immediately filtered through the Whatman GF/A filters and the filtrates were used to determine the residual peptide concentration. Then, the 1 mL portions of the filtrates were taken and combined with 1.25 mL aliquots of a solution containing 4% Na2B4O7 × 10 H2O and 0.8 mg mL^-1 of 2,4,6-trinitrobenzenesulfonate. The reaction was carried out at 37°C for 30 min. The A420 values were measured and the peptide concentration was read from the appropriate standard curve. Data were plotted as nanomoles of an oligopeptide, taken up by 1 mg (dry weight) of cells versus time. The initial uptake velocities were determined from the slopes of the linear part of the curves, in the 0- to 10-min region.
# C. albicans opt1Δ [10] = assay: Initial peptide uptake rate; conditions: 50 mM potassium phosphate buffer (pH 5.0 or 6.5) + 1% glucose, 30°C, 100 μM peptide, TNBS A420, slope 0- to 10-min
# Experimental: as §4
# [11] = tested on: C. albicans opt1–opt5Δ ptr2Δ ptr22Δ; assay: Initial peptide uptake rate; conditions: 50 mM potassium phosphate buffer (pH 5.0 or 6.5) + 1% glucose, 30°C, 100 μM peptide, TNBS A420, slope 0- to 10-min
# Experimental: as §4
# C. albicans opt1–opt5Δ [12] = assay: Initial peptide uptake rate; conditions: 50 mM potassium phosphate buffer (pH 5.0 or 6.5) + 1% glucose, 30°C, 100 μM peptide, TNBS A420, slope 0- to 10-min
# Experimental: as §4
# C. albicans opt2Δ opt3Δ [13] = assay: Initial peptide uptake rate; conditions: 50 mM potassium phosphate buffer (pH 5.0 or 6.5) + 1% glucose, 30°C, 100 μM peptide, TNBS A420, slope 0- to 10-min
# Experimental: as §4
# C. albicans opt4Δ [14] = assay: Initial peptide uptake rate; conditions: 50 mM potassium phosphate buffer (pH 5.0 or 6.5) + 1% glucose, 30°C, 100 μM peptide, TNBS A420, slope 0- to 10-min
# Experimental: as §4
# C. albicans opt5Δ [15] = assay: Initial peptide uptake rate; conditions: 50 mM potassium phosphate buffer (pH 5.0 or 6.5) + 1% glucose, 30°C, 100 μM peptide, TNBS A420, slope 0- to 10-min
# Experimental: as §4
# C. albicans ptr2Δ ptr22Δ [16] = assay: Initial peptide uptake rate; conditions: 50 mM potassium phosphate buffer (pH 5.0 or 6.5) + 1% glucose, 30°C, 100 μM peptide, TNBS A420, slope 0- to 10-min
# Experimental: as §4
# [17] = tested on: C. albicans isolates NF1-3 and LNF1-3; assay: Initial peptide uptake rate by isolates resistant to F2/F3; conditions: all six isolates NF1-3, LNF1-3; Figure 4
# Experimental: as §4
# It is therefore clear that the diminished sensitivity of all six isolates to F2 and F3 was due to the reduced uptake, most likely by permease(s) of the PTR system.
# [18] = RPMI-1640 medium, MOPS pH 7.0, CLSI conditions
compound,measurement,setting,value
"CC(C)[C@H](NC(=O)[C@H](Cc1c[nH]c2ccccc12)NC(=O)[C@H](Cc1ccccc1)NC(=O)[C@@H](NC(=O)[C@@H](NC(=O)[C@H](CCCCN)NC(=O)[C@@H](N)CCCCN)C(C)C)C(C)C)C(=O)N[C@@H](CCCCN)C(=O)N[C@@H](Cc1ccccc1)C(=O)N[C@@H](CCCCN)C(=O)O [Peptide P10, Lys-Lys-Val-Val-Phe-Trp-Val-Lys-Phe-Lys] (H-KKVVFWVKFK-OH)",MIC,"C. albicans SC5314 [1]; RPMI-1640 medium, MOPS pH 7.0, CLSI conditions, turbidity 531 nm, at least 80% decrease",64 µg/mL
same,MIC,C. albicans SC5314 [1]; YNB + L-Gln (0.3 g L^-1) pH 5.0,64 µg/mL
same,MIC,C. albicans SC5314 [1]; YNB + L-Gln (0.3 g L^-1) pH 7.0,64 µg/mL
same,MIC,C. albicans SC5314 [1]; YNB + amino acid mixture (composition as in RPMI-1640),64 µg/mL
same,MIC,"C. albicans SC5314 [1]; YNB-AS medium, 5 × 10^3 cfu mL^-1, 37°C, 24 h, turbidity 531 nm, at least 80% decrease",64 µg/mL
same,MIC,"C. albicans SC5314 [1]; YNB-SG medium, 5 × 10^3 cfu mL^-1, 37°C, 24 h, turbidity 531 nm, at least 80% decrease",64 µg/mL
same,MIC,C. albicans SC5314 [1]; growth medium YNB-SG (Table 6),64 µg/mL
same,MIC,C. albicans opt1Δ [2]; [18],64 µg/mL
same,MIC,"C. albicans opt1Δ [2]; YNB-AS medium, 37°C, 24 h",64 µg/mL
same,MIC,"C. albicans opt1Δ [2]; YNB-SG medium, 37°C, 24 h",64 µg/mL
same,MIC,[3]; [18],64 µg/mL
same,MIC,"[3]; YNB-AS medium, 37°C, 24 h",64 µg/mL
same,MIC,"[3]; YNB-SG medium, 37°C, 24 h",64 µg/mL
same,MIC,C. albicans opt1–opt5Δ [4]; [18],64 µg/mL
same,MIC,"C. albicans opt1–opt5Δ [4]; YNB-AS medium, 37°C, 24 h",64 µg/mL
same,MIC,"C. albicans opt1–opt5Δ [4]; YNB-SG medium, 37°C, 24 h",64 µg/mL
same,MIC,C. albicans opt2Δ opt3Δ [5]; [18],64 µg/mL
same,MIC,"C. albicans opt2Δ opt3Δ [5]; YNB-AS medium, 37°C, 24 h",64 µg/mL
same,MIC,"C. albicans opt2Δ opt3Δ [5]; YNB-SG medium, 37°C, 24 h",64 µg/mL
same,MIC,C. albicans opt4Δ [6]; [18],64 µg/mL
same,MIC,"C. albicans opt4Δ [6]; YNB-AS medium, 37°C, 24 h",64 µg/mL
same,MIC,"C. albicans opt4Δ [6]; YNB-SG medium, 37°C, 24 h",64 µg/mL
same,MIC,C. albicans opt5Δ [7]; [18],64 µg/mL
same,MIC,"C. albicans opt5Δ [7]; YNB-AS medium, 37°C, 24 h",64 µg/mL
same,MIC,"C. albicans opt5Δ [7]; YNB-SG medium, 37°C, 24 h",64 µg/mL
same,MIC,C. albicans ptr2Δ ptr22Δ [8]; [18],64 µg/mL
same,MIC,"C. albicans ptr2Δ ptr22Δ [8]; YNB-AS medium, 37°C, 24 h",64 µg/mL
same,MIC,"C. albicans ptr2Δ ptr22Δ [8]; YNB-SG medium, 37°C, 24 h",64 µg/mL
same,Uptake rate ± SD,C. albicans SC5314 [9],<0.1 nmol min^-1 (mg dry weight)^-1
same,Uptake rate ± SD,C. albicans opt1Δ [10],<0.1 nmol min^-1 (mg dry weight)^-1
same,Uptake rate ± SD,[11],<0.1 nmol min^-1 (mg dry weight)^-1
same,Uptake rate ± SD,C. albicans opt1–opt5Δ [12],<0.1 nmol min^-1 (mg dry weight)^-1
same,Uptake rate ± SD,C. albicans opt2Δ opt3Δ [13],<0.1 nmol min^-1 (mg dry weight)^-1
same,Uptake rate ± SD,C. albicans opt4Δ [14],<0.1 nmol min^-1 (mg dry weight)^-1
same,Uptake rate ± SD,C. albicans opt5Δ [15],<0.1 nmol min^-1 (mg dry weight)^-1
same,Uptake rate ± SD,C. albicans ptr2Δ ptr22Δ [16],<0.1 nmol min^-1 (mg dry weight)^-1
"Ala-Ala-Ala-Ala [(Ala)4, model alanyl oligopeptide, reference compound]",Uptake rate ± SD,C. albicans SC5314 [9],3.75 ± 0.19 nmol min^-1 (mg dry weight)^-1
same,Uptake rate ± SD,C. albicans opt1Δ [10],0.79 ± 0.09 nmol min^-1 (mg dry weight)^-1
same,Uptake rate ± SD,[11],<0.1 nmol min^-1 (mg dry weight)^-1
same,Uptake rate ± SD,C. albicans opt1–opt5Δ [12],0.12 ± 0.02 nmol min^-1 (mg dry weight)^-1
same,Uptake rate ± SD,C. albicans opt2Δ opt3Δ [13],1.93 ± 0.15 nmol min^-1 (mg dry weight)^-1
same,Uptake rate ± SD,C. albicans opt4Δ [14],1.72 ± 0.11 nmol min^-1 (mg dry weight)^-1
same,Uptake rate ± SD,C. albicans opt5Δ [15],1.55 ± 0.11 nmol min^-1 (mg dry weight)^-1
same,Uptake rate ± SD,C. albicans ptr2Δ ptr22Δ [16],2.72 ± 0.16 nmol min^-1 (mg dry weight)^-1
same,Initial uptake rate relative to wild type SC5314 cells,[17],nearly the same or even somewhat higher
"Ala-Ala [(Ala)2, reference compound]",Uptake rate ± SD,C. albicans SC5314 [9],5.12 ± 0.32 nmol min^-1 (mg dry weight)^-1
same,Uptake rate ± SD,C. albicans opt1Δ [10],4.50 ± 0.36 nmol min^-1 (mg dry weight)^-1
same,Uptake rate ± SD,[11],<0.1 nmol min^-1 (mg dry weight)^-1
same,Uptake rate ± SD,C. albicans opt1–opt5Δ [12],5.88 ± 0.40 nmol min^-1 (mg dry weight)^-1
same,Uptake rate ± SD,C. albicans opt2Δ opt3Δ [13],3.96 ± 0.29 nmol min^-1 (mg dry weight)^-1
same,Uptake rate ± SD,C. albicans opt4Δ [14],4.83 ± 0.31 nmol min^-1 (mg dry weight)^-1
same,Uptake rate ± SD,C. albicans opt5Δ [15],5.00 ± 0.38 nmol min^-1 (mg dry weight)^-1
same,Uptake rate ± SD,C. albicans ptr2Δ ptr22Δ [16],<0.1 nmol min^-1 (mg dry weight)^-1
same,Initial uptake rate relative to wild type SC5314 cells,[17],remarkably lower
